# In publication PMC9531406 (Clinical cancer research : an official journal of the …, 2020):
# Experiments:
# [1] = system: FTC133 tumors; test: PRRT in FTC133; assay type: in vivo; settings: FTC133 mice model; VAC 300 µg/kg intraperitoneal daily for 10 days
# [2] = system: AR42J tumors; test: PRRT in AR42J; assay type: in vivo; settings: AR42J mice model; VAC 300 µg/kg intraperitoneal daily for 10 days
# [3] = system: SSTR2 promoter; test: ChIP assay, histone acetylation at the SSTR2 promoter, BCPAP cells; assay type: cell-based, human; settings: VAC 4mM, 72h, n=4, relative to control, p<0.001
# [4] = system: SSTR2 promoter; test: ChIP assay, histone acetylation at the SSTR2 promoter, AR42J cells; assay type: cell-based, rat; settings: VAC 4mM, 72h, n=4, relative to control
# [5] = system: SSTR2 promoter; test: ChIP assay, histone acetylation at the SSTR2 promoter, FTC133 cells; assay type: cell-based, human; settings: VAC 4mM, 72h
# [6] = system: SSTR2 expression; test: SSTR2 expression in thyroid cancer cells after epigenetic modifiers; assay type: cell-based, human
# [7] = system: SSTR2 expression; test: SSTR2 expression in AR42J cells after VAC; assay type: cell-based, rat; settings: AR42J cell line; 2 mM or 4 mM for 72 h
# [8] = system: examined cell lines; test: Growth inhibition / cell cycle after VAC treatment; assay type: cell-based; settings: VAC treatment (Supplemental Figure 3)
# [9] = system: subcutaneous and metastatic mice models; test: Effect of epigenetic pretreatment on uptake of SST analogs in mice models; assay type: in vivo; settings: for effect on the uptake of ^86Y-DOTA-EB-TATE within the tumor and normal tissues in comparison with control mice: biodistribution, FTC133 and AR42J tumor-bearing mice
# [10] = system: SSTR2; test: IHC staining of SSTR2 in tumor tissues of treated mice; assay type: in vivo; settings: FTC133 (p=0.023) and AR42J (p=0.016) models; VAC 300 µg/kg intraperitoneal daily for 10 days
# [11] = system: acetylated histone 3 and acetylated histone 4; test: Global histone acetylation; assay type: cell-based; settings: FTC133, BCPAP, and AR42J cells; VAC 4mM, 72h, n=3
Compound,effect of VAC pretreatment on the efficacy of ^177Lu-DOTA-EB-TATE [1],effect of VAC pretreatment on the efficacy of ^177Lu-DOTA-EB-TATE [2],increase in H3ac at the SSTR2 promoter [3] [fold],increase in H4ac at the SSTR2 promoter [3] [fold],increase in H3ac at the SSTR2 promoter ([4]; p<0.001) [fold],increase in H4ac at the SSTR2 promoter ([4]; p<0.01) [fold],"increase in H4 acetylation at the SSTR2 promoter ([5]; n=4, p<0.001) [fold]","H3 acetylation at the SSTR2 promoter ([5]; n=4, p<0.05)","SSTR2 expression ([6]; FTC133, BCPAP and TT cells, 2 mM or 4 mM for 72 h)","induction of SSTR2 expression in comparison to TAC and DEC ([6]; thyroid cancer cells, 72h)",SSTR2 expression [7],effect on cell growth [8],effect on the uptake of ^86Y-DOTA-EB-TATE within the tumor and normal tissues in comparison with control mice [9],"effect of VAC treatment on the uptake of the SST analogs ([9]; subcutaneous and metastatic mice models, VAC 300 µg/kg intraperitoneal daily for 10 days, PET)",SSTR2 expression in tumor tissues compared with placebo (IHC) [10],global histone acetylation at the protein level [11],"effect of decitabine treatment on the uptake of ^86Y-DOTA-EB-TATE ([9]; FTC133 and AR42J subcutaneous mice models, decitabine 1 mg/kg intraperitoneal daily for 10 days, PET scans)"
"CCCC(CCC)C(=O)O [VAC, valproic acid]",did not improve the efficacy,did not improve the efficacy,1.9,2.9,2.8,2.7,2.4,"slightly, but significantly reduced",significantly upregulated,more potent inducer of SSTR2 expression,significantly upregulated,growth inhibition by promoting cell cycle arrest,Neither VAC nor DEC treatment resulted in any significant difference,no significant effect,higher cytoplasmic SSTR2 expression,increase in H3ac and H4ac,–
Nc1ncn([C@H]2C[C@H](O)[C@@H](CO)O2)c(=O)n1 [decitabine],–,–,–,–,–,–,–,–,–,–,–,–,Neither VAC nor DEC treatment resulted in any significant difference,–,–,–,did not improve the uptake
